Reference: US20260207621A1 (Vividion Therapeutics, Inc., priority 2022, published 2026)

Tests used:
[1] = tested on: Nrf2; test: Nrf2 antagonism assay: ARE luciferase reporter in KYSE-70 cells; assay type: cell-based; settings: positive Imax corresponds to Nrf2 antagonism; for Emax: Homo sapiens, KYSE-70, KYSE-70 cells, read-out: KYSE70 Cellular ARE Luciferase Imax (%); for KYSE70 Cellular ARE Luciferase Imax (%): KYSE-70 cells
Procedure, shortened: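 Dose-response curves give IC50 and Imax, with positive Imax read as Nrf2 antagonism, i.e. reduced luciferase signal. Reporter cells are Nrf2-high KYSE-70 (Nrf2 W24C mutant) bearing ARE-controlled luciferase. Antagonists are proposed to act at KEAP1 C151, speeding Nrf2 degradation.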

[2] = target: T1, KEAP1 C151 (Homo sapiens, UniProt Q14145); test: Nrf2 TMT measurement: in vitro TE50 for KEAP1 C151 (IA-DTB competition, targeted TMT mass spectrometry) in MDA-MB-468 cell lysate; assay type: binding; settings: in vitro target engagement of KEAP1 C151, targeted TMT, read-out: KEAP1_C151 TE50
T1 construct: treating 500 μg of cell lysate generated from MDA-MB-468 breast cancer cells with DMSO or compound; endogenous in cells; host or cells: MDA-MB-468 breast cancer cell lysate
T1 sequence (Q14145 whole entry): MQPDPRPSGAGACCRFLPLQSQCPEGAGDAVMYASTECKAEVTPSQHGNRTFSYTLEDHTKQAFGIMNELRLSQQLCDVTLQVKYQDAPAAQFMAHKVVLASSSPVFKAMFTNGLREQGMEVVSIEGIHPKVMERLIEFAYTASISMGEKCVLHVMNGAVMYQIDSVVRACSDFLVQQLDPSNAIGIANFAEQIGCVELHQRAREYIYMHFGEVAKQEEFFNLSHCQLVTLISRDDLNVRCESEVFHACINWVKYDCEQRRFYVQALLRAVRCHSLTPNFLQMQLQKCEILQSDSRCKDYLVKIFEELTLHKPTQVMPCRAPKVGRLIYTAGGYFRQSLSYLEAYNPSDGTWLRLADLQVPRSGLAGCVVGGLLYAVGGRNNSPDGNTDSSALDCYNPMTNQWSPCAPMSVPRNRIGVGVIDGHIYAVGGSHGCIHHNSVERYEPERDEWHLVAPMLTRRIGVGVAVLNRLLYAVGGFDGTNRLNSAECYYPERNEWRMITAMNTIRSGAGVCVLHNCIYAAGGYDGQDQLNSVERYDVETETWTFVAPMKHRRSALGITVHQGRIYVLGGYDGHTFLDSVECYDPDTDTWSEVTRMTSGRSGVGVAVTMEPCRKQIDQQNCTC
Experimental: In vitro TE50 values for KEAP_C151 were obtained by treating 500 μg of cell lysate generated from MDA-MB-468 breast cancer cells with DMSO or compound for 1 hour at room temperature followed by the addition of 200 μM IA-DTB (in DMSO) for one hour at room temperature. Samples were then precipitated by the addition of 8× ice cold acetonitrile and incubated at −80° C. for two hours. Protein was then pelleted by centrifugation (4,200 RPM, 45 min, 4° C.). The pelleted material was resuspended in 9M Urea, 50 mM ammonium bicarbonate and proteins were reduced and alkylated by the addition of DTT and iodoacetamide (10 and 30 mM, respectively). Following reduction and alkylation, samples were exchanged into 2M urea (Zeba spin desalting plates, Thermo Fisher) and digested with Trypsin. IA-DTB labeled peptides were isolated with streptavidin agarose resin. Enriched peptides were eluted by the addition of 50% acetonitrile (ACN) 0.1% Formic Acid (FA) and dried in a SpeedVac vacuum concentrator.
Dried peptides were resuspended in 0.2 M EPPS pH 8.5 and treated with 6.5 μL of 11-plex tandem mass tag (TMT) (8.3 μg/μL in dry ACN) for 2 hours at room temperature. Reactions were quenched by the addition of 6.5 μL of 5% Hydroxylamine. Samples were then combined and desalted on a Biotage Evolute express ABN plate (600-0010-PX01).
Targeted TMT. Targeted TMT measurements were collected using an Orbitrap LumosTribrid Mass Spectrometer (Thermo Scientific) coupled to an UltiMate 3000 Series Rapid Separation LC system and autosampler (Thermo Scientific Dionex). Peptides were eluted onto a custom C18 capillary analytical column (75-μm inner diameter fused silica, packed with Acclaim PepMap C18 resin (Thermo Scientific)) using an Acclaim PepMap 100 (Thermo 164535) loading column, and separated at a flow rate of 1.0 μl min−1. Data were acquired using a specific MS3-based TMT method targeting the peptide containing KEAP1 C151 (C(+324.2)[…], +3 charge state) where MS2 peptide fragmentation is triggered upon detection of the peptide precursor ion. Subsequent MS3 analysis was then performed using pre-selected peptide fragment ions that were isolated for fragmentation using synchronous precursor selection. RAW files were converted to MZXML format and searched with the SEQUEST algorithm using the MassPike software package. TMT quantitation was performed with a filter requiring at least ten summed signal-to-noise for control channels. Quantified signals were used for dose response curve-fitting and IC50 calculation using R's drc package.

Row | SMILES | IC50 [2] | Emax [1] | KYSE70 Cellular ARE Luciferase Imax (%) [1]
1 | C=CC(=O)N1CCOC[C@H]1c1cc(Cl)cc(-c2nccc(NC(C)=O)n2)c1 (single isomer, unassigned) [Compound 256] | 86 nM | 63% | 
2 | C=CC(=O)N1CC2(COC2)C1c1cc(Cl)cc(-c2ncnc(N)n2)c1 (single isomer, unassigned) [Compound 159, 1-(5-(3-(4-amino-1,3,5-triazin-2-yl)-5-chlorophenyl)-2-oxa-6-azaspiro[3,3]heptan-6-yl)prop-2-en-1-one] | 320 nM | 63% | 
3 | C=CC(=O)N1CCS(=O)(=O)CC1c1cc(Cl)cc(-c2ccnc(C)n2)c1 (single isomer, unassigned) [Compound 51, 1-(3-(3-chloro-5-(2-methylpyrimidin-4-yl)phenyl)-1,1-dioxidothiomorpholino)prop-2-en-1-one] | 237 nM |  | 89%
4 | C=CC(=O)N1CCOC[C@H]1c1cc(Cl)cc(-c2cnc(N)o2)c1 (single isomer, unassigned) [Compound 234] | 220 nM | 89% | 
5 | C=CC(=O)N1CCS(=O)(=O)CC1c1cc(Cl)cc(-c2ncnc(N)n2)c1 (single isomer, unassigned) [Compound 206, 1-(3-(3-(4-amino-1,3,5-triazin-2-yl)-5-chlorophenyl)-1,1-dioxidothiomorpholino)prop-2-en-1-one] | 520 nM |  | 55%
6 | C=CC(=O)N1CCOC[C@H]1c1cc(Cl)cc(-c2cnc(OC)c(N)n2)c1 (single isomer, unassigned) [Compound 259] | 140 nM | 93% | 
7 | C=CC(=O)N1CC2(CC2)OCC1c1cc(Cl)nc(-c2cc(N)ncn2)c1 (single isomer, unassigned) [Compound 174, 1-(6-(2-(6-aminopyrimidin-4-yl)-6-chloropyridin-4-yl)-4-oxa-7-azaspiro[2.5]octan-7-yl)prop-2-en-1-one] | 76 nM |  | 51%
8 | C=CC(=O)N1CC2(CC2)OCC1(C)c1cc(Cl)cc(-c2cc(N)ncn2)c1 (single isomer, unassigned) [Compound 167, 1-(6-(3-(6-aminopyrimidin-4-yl)-5-chlorophenyl)-6-methyl-4-oxa-7-azaspiro[2.5]octan-7-yl)prop-2-en-1-one] | 2890 nM | 87% | 
9 | C=CC(=O)N1CC(C)(C)OC[C@H]1c1cc(Cl)cc(-c2ccnc(C(N)=O)c2)c1 (single isomer, unassigned) [Compound 133] | 72 nM | 85% | 
10 | C=CC(=O)N1CCOC[C@H]1c1cc(Cl)cc(N2CCC(N)C2=O)c1 (single isomer, unassigned) [Compound 230] | 820 nM | 51% | 
11 | C=CC(=O)N1CCOC[C@H]1c1cc(Cl)cc(C2CNC(=S)N(C)C2)c1 (single isomer, unassigned) [Compound 226] | 200 nM | 85% | 
12 | C=CC(=O)N1CC(C)(C)OCC1c1cc(Cl)nc(-c2ccc(F)c(C(N)=O)c2)c1 (single isomer, unassigned) [Compound 69, 5-(4-(4-acryloyl-6,6-dimethylmorpholin-3-yl)-6-chloropyridin-2-yl)-2-fluorobenzamide] | 88.4 nM | 82% | 
13 | C=CC(=O)N1CCOC[C@H]1c1cc(Cl)cc(-c2cc(N)on2)c1 (single isomer, unassigned) [Compound 212] | 69 nM | 90% | 
14 | C=CC(=O)N1[C@H](C)COC[C@H]1c1cc(Cl)nc(-c2ccnc(N)n2)c1 (single isomer, unassigned) [Compound 144] | 83 nM | 86% | 
15 | C=CC(=O)N1CC2(CCCC2)OCC1(C)c1cc(Cl)cc(-c2ncnc(N)n2)c1 (single isomer, unassigned) [Compound 164, 1-(8-(3-(4-amino-1,3,5-triazin-2-yl)-5-chlorophenyl)-8-methyl-6-oxa-9-azaspiro[4.5]decan-9-yl)prop-2-en-1-one] | 440 nM | 85% | 
16 | C=CC(=O)N1CCOCC1c1cc(Cl)cc(-c2nc[nH]n2)c1 (single isomer, unassigned) [Compound 41, 1-(3-(3-chloro-5-(1H-1,2,4-triazol-3-yl)phenyl)morpholino)prop-2-en-1-one] | 200 nM | 68% | 
17 | C=CC(=O)N1CC[C@](C)(O)C[C@@H]1c1cc(Cl)cc(-c2ncc(N)cn2)c1 (single isomer, unassigned) [Compound 266] | 320 nM | 90% | 
18 | C=CC(=O)N1CCOCC12COc1c(-c3ccccc3)cc(Cl)cc12 (racemic) [Compound 7, 1-(5-chloro-7-phenyl-2H-spiro[benzofuran-3,3′-morpholin]-4′-yl)prop-2-en-1-one] | 5260 nM | 55% | 

Stronger by IC50 [2], values ahead:

Row | IC50 [2] | SMILES | Emax [1] | KYSE70 Cellular ARE Luciferase Imax (%) [1]
19 | 36 nM | C=CC(=O)N1CCS(=O)(=O)CC1c1cc(Cl)cc(-c2ncccn2)c1 (single isomer, unassigned) [Compound 31, 1-(3-(3-chloro-5-(pyrimidin-2-yl)phenyl)-1,1-dioxidothiomorpholino)prop-2-en-1-one] | 66% | 
20 | 27 nM | C=CC(=O)N1CCN(C(C)=O)C[C@H]1c1cc(Cl)cc(-c2nccc(N)n2)c1 (single isomer, unassigned) [Compound 183] | 87% | 
21 | 51.3 nM | C=CC(=O)N1CC(C)(C)OC[C@H]1c1cc(Cl)cc(-c2ccc(F)c(C(N)=O)c2)c1 (single isomer, unassigned) [Compound 61] | 89% | 
22 | 10.7 nM | C=CC(=O)N1CCOC[C@H]1c1cc(Cl)cc(-c2cccc(NC(C)=O)c2)c1 (single isomer, unassigned) [Compound 2] | 52% | 
23 | 7.3 nM | C=CC(=O)N1[C@H](c2cc(Cl)nc(-c3ccc(F)c(C(N)=O)c3)c2)COC[C@H]1C(F)F (single isomer, unassigned) [Compound 180] | 90% | 
24 | 26 nM | C=CC(=O)N1CCOC[C@H]1c1cc(Cl)cc(-c2cccc(C)n2)c1 (single isomer, unassigned) [Compound 98] | 76% | 
25 | 37 nM | C=CC(=O)N1CCOC[C@H]1c1cc(Cl)cc(-c2ccnc(C#N)n2)c1 (single isomer, unassigned) [Compound 106] | 67% | 
26 | 18 nM | C=CC(=O)N1CC(C)(C)OCC1c1cc(Cl)nc(-c2ccn3ccnc3c2)c1 (single isomer, unassigned) [Compound 78, 1-(5-(2-chloro-6-(imidazo[1,2-a]pyridin-7-yl)pyridin-4-yl)-2,2-dimethylmorpholino)prop-2-en-1-one] | 78% | 
27 | 36 nM | C=CC(=O)N1CCOCC1c1cc(Cl)cc(-c2cc(C(N)=O)n3ccnc3c2)c1 (single isomer, unassigned) [Compound 85, 7-(3-(4-acryloylmorpholin-3-yl)-5-chlorophenyl)imidazo[1,2-a]pyridine-5-carboxamide] | 89% | 
28 | 19 nM | C=CC(=O)N1CCOCC1c1cc(C#N)cc(-c2ccc(F)c(C(N)=O)c2)c1 (single isomer, unassigned) [Compound 67, 3′-(4-acryloylmorpholin-3-yl)-5′-cyano-4-fluoro-[1,1′-biphenyl]-3-carboxamide] | 73% | 
29 | 50 nM | C=CC(=O)N1CCOC[C@H]1c1cc(Cl)cc(-c2ncc(N)c(N)n2)c1 [Compound 253, (R)-1-(3-(3-chloro-5-(4,5-diaminopyrimidin-2-yl)phenyl)morpholino)prop-2-en-1-one] | 93% | 
30 | 12 nM | C=CC(=O)N1[C@H](CO)COC[C@H]1c1cc(Cl)nc(-c2ccn3ccnc3c2)c1 (single isomer, unassigned) [Compound 157] | 81% | 
31 | 34 nM | C=CC(=O)N1CC(F)(F)CCC1c1cc(Cl)cc(-c2ncc(N)cn2)c1 (single isomer, unassigned) [Compound 238, 1-(2-(3-(5-aminopyrimidin-2-yl)-5-chlorophenyl)-5,5-difluoropiperidin-1-yl)prop-2-en-1-one] | 82% | 
